Results from ChEMBL document CHEMBL1201862, “PubChem BioAssay data set” (2004).
Active and inactive are the calls of the source.

Experiments:
[1] = biological target: Mitogen-activated protein kinase 10 (Homo sapiens, UniProt P53779); test: Dose response biochemical screening assay for inhibitors of c-Jun N-Terminal Kinase 3 (JNK3). [Related pubchem assays: 746 ]
[2] = M. tuberculosis H37Rv growth inhibitors, H37Rv strain (AID 1626); format: functional
[3] = biological target: T1, Oxysterols receptor LXR-beta (Homo sapiens, UniProt P55055); format: functional, cell-based;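 note: Cell-based luminescence dose-response assay of agonist activity at LXR, run as a confirmatory counterscreen to a daf-12 agonist screen; HEK293 cells with Gal4-LXR fusion and GAL4-driven luciferase reporter; agonist potency from rising luciferase signal of a Gal4-LXR reporter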
T1 sequence (P55055 whole entry): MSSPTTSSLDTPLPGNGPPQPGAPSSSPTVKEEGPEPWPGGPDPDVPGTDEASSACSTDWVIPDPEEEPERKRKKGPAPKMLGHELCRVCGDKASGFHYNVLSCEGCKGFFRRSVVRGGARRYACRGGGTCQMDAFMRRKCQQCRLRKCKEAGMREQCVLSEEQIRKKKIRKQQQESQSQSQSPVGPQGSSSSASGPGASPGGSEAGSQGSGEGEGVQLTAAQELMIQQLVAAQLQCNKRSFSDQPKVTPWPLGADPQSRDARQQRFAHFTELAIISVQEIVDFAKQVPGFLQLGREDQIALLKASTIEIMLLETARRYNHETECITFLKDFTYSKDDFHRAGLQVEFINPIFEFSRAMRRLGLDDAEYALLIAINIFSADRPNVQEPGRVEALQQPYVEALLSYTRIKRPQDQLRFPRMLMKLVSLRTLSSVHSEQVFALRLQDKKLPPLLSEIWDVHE

[4] = biological target: Peroxisome proliferator-activated receptor gamma/Nuclear receptor coactivator 1 (Homo sapiens, UniProt P37231); test: (§1) TR-FRET dose response biochemical High Throughput Screening assay for agonists of the steroid receptor coactivator 1 (SRC-1) recruitment by the peroxisome proliferator-activated receptor gamma (PPAR gamma): non-selective agonists. [Related pubchem assays (depositor defined):AID1300, AID1808, AID504735, AID631]; format: protein assay
[5] = biological target: Luciferin 4-monooxygenase (Photinus pyralis, UniProt P08659); test: Counter Screen for Luciferase-based Assay Positives. [Related pubchem assays: 620, 618, 411 ]
[6] = biological target: Peroxisome proliferator-activated receptor gamma/Nuclear receptor coactivator 3 (Homo sapiens, UniProt P37231); test: as §1, with “3 (SRC-3)” for “1 (SRC-1)”, “assays: 1301 (Confirmation screen.), 1048 (Primary screen.)]” for “assays (depositor defined):AID1300, AID1808, AID504735, AID631]”; format: functional
[7] = Luminescence-based dose response cell-based high throughput screening assay for cytotoxic compounds using the IEC-6 intestinal epithelial cell line. [Related pubchem assays: 1858 (Summary AID.), 1825 (Counterscreen.), 1907 (Confirmation screen.)]; format: functional
HT-1080 = test: HT1080 cell viability loss – fluorescence readout (AID 620); format: functional, cell-based; conditions: Homo sapiens
[8] = biological target: Peroxisome proliferator-activated receptor gamma/Nuclear receptor coactivator 2 (Homo sapiens, UniProt P37231); test: TR-FRET dose response biochemical High Throughput Screening assay for agonists of the steroid receptor coactivator 2 (SRC-2) recruitment by the peroxisome proliferator-activated receptor gamma (PPAR gamma): non-selective agonists. [Related pubchem assays: 1297, 1032 ]; format: functional
[9] = biological target: RNA-editing ligase 1, mitochondrial (Trypanosoma brucei brucei, UniProt P86926); test: inhibition of trypanosome RNA editing ligase – biochemical, fluorescence, Trypanosoma brucei, dose response (AID 1117295); format: functional
Genome polyprotein = Genome polyprotein (Hepatitis C virus, UniProt Q2Q167); test: disruption of hepatitis C core self-association – biochemical, TR-FRET, dose response (AID 2159); set-up: species or system Hepacivirus hominis;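 note: blocks dimerization of HCV core protein measured by TR-FRET between tagged core106 pairs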
Kallikrein-7 = Kallikrein-7 (Homo sapiens, UniProt P49862); test: Fluorescence Intensity-based biochemical primary high throughput dose response assay to identify activators of kallikrein-7 (K7) zymogen.
Protein skinhead-1 = biological target: T2, Protein skinhead-1 (Caenorhabditis elegans, UniProt P34707); format: functional
T2 sequence (P34707 whole entry): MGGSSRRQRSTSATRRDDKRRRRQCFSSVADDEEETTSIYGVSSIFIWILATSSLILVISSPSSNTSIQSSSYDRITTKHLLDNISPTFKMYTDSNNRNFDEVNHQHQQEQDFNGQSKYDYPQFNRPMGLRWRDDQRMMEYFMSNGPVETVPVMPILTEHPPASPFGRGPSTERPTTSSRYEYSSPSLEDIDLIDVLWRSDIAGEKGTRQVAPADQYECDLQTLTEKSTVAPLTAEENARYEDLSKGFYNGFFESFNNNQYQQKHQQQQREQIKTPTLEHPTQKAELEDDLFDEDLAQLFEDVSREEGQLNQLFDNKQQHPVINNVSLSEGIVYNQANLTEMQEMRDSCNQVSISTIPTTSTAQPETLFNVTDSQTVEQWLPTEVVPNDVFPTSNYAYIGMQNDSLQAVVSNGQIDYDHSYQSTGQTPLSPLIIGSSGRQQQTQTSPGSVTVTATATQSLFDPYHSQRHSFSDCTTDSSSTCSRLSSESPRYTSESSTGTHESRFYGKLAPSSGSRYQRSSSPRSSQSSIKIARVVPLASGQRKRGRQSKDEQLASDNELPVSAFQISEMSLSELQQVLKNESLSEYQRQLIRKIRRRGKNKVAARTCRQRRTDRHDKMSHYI

[10] = reduced cellular PGC1a acetyl-lysine signal – cell-based, cherry-picked samples, dose response (AID 720514); format: functional;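 note: potency may reflect raised or lowered acetylation signal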

Sequence of Mitogen-activated protein kinase 10 (P53779 whole entry): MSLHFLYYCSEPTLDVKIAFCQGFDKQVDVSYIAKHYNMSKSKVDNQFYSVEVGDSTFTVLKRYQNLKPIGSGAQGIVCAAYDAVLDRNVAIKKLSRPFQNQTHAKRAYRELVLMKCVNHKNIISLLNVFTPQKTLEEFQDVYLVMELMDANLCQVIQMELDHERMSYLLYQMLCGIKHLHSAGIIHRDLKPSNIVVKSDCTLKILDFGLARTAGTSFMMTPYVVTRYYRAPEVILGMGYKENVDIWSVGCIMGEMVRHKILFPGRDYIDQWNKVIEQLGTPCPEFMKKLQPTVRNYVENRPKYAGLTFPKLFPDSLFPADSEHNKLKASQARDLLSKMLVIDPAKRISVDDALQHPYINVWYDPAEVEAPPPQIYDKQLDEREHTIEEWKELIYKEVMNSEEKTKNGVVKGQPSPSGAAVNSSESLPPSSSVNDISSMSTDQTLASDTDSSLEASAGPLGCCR
Sequence of Kallikrein-7 (P49862 whole entry): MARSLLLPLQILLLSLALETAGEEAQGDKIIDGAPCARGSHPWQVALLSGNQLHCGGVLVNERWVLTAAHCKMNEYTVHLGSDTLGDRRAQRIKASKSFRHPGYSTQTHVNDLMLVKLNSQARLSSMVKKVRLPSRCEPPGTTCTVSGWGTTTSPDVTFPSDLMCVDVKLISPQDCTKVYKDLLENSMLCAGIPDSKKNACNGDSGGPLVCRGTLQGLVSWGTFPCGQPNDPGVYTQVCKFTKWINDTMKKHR
Sequence of Luciferin 4-monooxygenase (P08659 whole entry): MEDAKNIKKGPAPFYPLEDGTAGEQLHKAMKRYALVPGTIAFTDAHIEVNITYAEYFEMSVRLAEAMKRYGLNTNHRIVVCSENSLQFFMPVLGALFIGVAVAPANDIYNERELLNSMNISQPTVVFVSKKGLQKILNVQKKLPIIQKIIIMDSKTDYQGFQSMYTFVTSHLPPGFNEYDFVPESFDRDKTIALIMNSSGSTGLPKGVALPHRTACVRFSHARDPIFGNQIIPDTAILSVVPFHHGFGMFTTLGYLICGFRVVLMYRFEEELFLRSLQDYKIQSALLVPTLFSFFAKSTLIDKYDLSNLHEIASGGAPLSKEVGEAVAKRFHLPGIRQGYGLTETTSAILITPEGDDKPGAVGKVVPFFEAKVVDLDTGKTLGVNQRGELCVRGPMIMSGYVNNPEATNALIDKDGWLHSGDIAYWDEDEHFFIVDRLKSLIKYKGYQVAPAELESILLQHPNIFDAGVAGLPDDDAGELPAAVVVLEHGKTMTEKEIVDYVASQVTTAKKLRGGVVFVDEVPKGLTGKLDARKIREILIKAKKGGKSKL
Sequence of RNA-editing ligase 1, mitochondrial (P86926 whole entry): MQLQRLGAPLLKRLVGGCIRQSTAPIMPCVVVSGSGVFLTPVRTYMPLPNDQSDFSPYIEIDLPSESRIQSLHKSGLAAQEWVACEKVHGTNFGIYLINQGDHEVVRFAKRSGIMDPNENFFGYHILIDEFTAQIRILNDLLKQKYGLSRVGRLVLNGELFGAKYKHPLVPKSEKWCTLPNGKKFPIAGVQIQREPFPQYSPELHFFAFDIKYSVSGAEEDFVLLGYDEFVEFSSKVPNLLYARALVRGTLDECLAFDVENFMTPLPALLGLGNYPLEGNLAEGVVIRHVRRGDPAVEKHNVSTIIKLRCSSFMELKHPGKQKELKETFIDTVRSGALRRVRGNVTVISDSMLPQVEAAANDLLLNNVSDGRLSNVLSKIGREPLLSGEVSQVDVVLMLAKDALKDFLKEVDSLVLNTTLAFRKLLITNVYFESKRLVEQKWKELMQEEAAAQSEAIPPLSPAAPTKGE
Sequence of Genome polyprotein (Q2Q167 whole entry): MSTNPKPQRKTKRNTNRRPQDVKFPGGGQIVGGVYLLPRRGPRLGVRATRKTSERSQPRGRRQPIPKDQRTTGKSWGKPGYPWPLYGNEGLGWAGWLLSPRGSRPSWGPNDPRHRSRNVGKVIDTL
Sequence of Peroxisome proliferator-activated receptor gamma/Nuclear receptor coactivator 2 (P37231 whole entry): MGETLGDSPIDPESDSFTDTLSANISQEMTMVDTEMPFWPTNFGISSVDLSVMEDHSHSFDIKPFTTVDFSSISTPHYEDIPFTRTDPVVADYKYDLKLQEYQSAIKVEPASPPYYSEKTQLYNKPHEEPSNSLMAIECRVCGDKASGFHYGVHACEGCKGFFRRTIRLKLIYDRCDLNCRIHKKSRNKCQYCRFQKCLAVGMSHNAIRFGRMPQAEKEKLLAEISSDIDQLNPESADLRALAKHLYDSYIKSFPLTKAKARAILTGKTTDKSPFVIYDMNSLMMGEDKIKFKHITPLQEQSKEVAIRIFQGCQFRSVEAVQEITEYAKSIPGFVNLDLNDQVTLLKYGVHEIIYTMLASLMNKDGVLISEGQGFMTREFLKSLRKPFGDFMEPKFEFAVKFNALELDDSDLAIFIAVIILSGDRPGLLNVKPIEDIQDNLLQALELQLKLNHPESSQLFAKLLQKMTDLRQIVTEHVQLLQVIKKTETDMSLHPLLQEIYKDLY
Sequence of Peroxisome proliferator-activated receptor gamma/Nuclear receptor coactivator 2 (Q15596 whole entry, further chain): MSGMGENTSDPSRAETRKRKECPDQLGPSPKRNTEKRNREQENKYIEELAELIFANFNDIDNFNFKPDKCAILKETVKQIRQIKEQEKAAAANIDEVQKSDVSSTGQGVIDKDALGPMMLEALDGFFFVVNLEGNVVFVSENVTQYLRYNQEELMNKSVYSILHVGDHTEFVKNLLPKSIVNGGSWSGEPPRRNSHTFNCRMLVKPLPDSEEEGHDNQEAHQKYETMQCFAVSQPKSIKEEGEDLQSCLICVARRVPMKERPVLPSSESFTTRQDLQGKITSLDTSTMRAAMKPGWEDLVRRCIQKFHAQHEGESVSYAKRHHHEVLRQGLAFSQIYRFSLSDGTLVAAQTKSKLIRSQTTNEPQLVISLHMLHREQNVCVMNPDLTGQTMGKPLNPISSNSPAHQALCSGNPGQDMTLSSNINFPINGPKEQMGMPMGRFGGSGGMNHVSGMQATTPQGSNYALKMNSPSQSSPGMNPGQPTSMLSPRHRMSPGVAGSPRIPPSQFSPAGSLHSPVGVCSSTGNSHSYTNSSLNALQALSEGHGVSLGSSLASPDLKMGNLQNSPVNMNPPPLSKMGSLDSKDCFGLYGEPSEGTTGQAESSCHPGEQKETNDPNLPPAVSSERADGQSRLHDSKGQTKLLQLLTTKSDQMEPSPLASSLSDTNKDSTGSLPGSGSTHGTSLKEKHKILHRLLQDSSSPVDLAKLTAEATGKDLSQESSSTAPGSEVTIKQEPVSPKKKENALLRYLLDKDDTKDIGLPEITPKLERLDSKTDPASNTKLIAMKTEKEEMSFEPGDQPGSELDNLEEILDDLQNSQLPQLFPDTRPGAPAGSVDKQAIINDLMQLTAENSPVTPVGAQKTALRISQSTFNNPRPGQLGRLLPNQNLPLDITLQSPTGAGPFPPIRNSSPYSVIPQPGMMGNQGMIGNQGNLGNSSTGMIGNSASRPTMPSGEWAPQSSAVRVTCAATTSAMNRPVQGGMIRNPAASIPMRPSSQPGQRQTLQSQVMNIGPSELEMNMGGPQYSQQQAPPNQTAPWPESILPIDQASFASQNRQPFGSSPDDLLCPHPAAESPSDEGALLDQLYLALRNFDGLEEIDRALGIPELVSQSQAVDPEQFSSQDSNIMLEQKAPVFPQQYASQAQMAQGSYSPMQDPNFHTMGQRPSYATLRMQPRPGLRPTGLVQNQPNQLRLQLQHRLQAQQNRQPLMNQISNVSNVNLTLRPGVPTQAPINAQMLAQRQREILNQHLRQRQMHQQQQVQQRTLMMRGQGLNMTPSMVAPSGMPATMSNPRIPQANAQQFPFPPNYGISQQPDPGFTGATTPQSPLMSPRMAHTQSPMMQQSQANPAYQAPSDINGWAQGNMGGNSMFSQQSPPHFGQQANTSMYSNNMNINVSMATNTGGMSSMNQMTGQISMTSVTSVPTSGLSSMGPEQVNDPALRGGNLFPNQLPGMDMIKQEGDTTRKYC

COc1cccc(NC(=O)CCCn2c(=O)[nH]c3ccccc3c2=O)c1
IC50 [1]: 48.1 µM (not active)

CCOc1ccc(N2C(=O)c3ccc(C(=O)OCC(=O)N(CC)C4CCS(=O)(=O)C4)cc3C2=O)cc1 (stereo unspecified)
IC50 [2]: > 100 µM (active)

O=c1c2ccccc2cnn1-c1ccc(Cl)cc1
EC50 [3]: > 67.5 µM (inactive) | EC50 (cells): > 67.5 µM (inactive)

CN1/C(=C\C=C\C2=[N+](C)c3ccc4ccccc4c3C2(C)C)C(C)(C)c2ccccc21.[O-][Cl+3]([O-])([O-])[O-]
EC50 [4]: 13.4 µM (inactive) | EC50 [5]: 7.77 µM (active) | EC50 [6]: > 79.4 µM (not active) | IC50 [7]: 761 nM (active) | EC50 (HT-1080): > 50 µM (not active) | EC50 [8]: 8.19 µM (active)

Sc1nnc(-c2ccc(Br)cc2)n1-c1ccccc1.[Zn+2]
IC50 [9]: 20.2 µM (inactive)

CCCCC(=O)Nc1ncc(Br)s1
IC50 [1]: 54.9 µM (not active)

Sc1nncn2c1cc1oc3ccccc3c12
IC50 (Genome polyprotein): > 49.8 µM (not active)

CCC(NC(=O)Cc1c(C)c2c(cc(C)c3c(C)c(C)oc32)oc1=O)C(=O)O (stereo unspecified)
EC50 (Kallikrein-7): > 69.5 µM (inactive)

O=C(C=Cc1ccccc1)CC(c1ccccc1)N1CCOCC1 (stereo unspecified)
IC50 (Protein skinhead-1): 10.9 µM (active) | AC50 [10]: 10.7 µM (active)
